Measured values as given in patent US4468350A, “KA-6643-Series antibiotics, process for producing same and medical composition containing same” (Kowa Co., Ltd., priority 1980, dated 1984).
Converted amounts (≈) assume the structure as drawn. Where two headings read alike, the source gives them in different places.

Columns and labels:
[1] = test system: Pseudomonas aeruginosa NCTC 10490; experiment: Antibacterial spectrum, minimum inhibitory concentration; type: cell-based; conditions: NCTC10490
[2] = test system: Klebsiella pneumoniae PCI-602; experiment: as above; type: cell-based; conditions: PCI602
[3] = test system: Escherichia coli NIHJ JC-2; experiment: as above; type: cell-based; conditions: NIHJJC2
[4] = test system: Staphylococcus aureus 209P JC-1; experiment: as above; type: cell-based
[5] = Solubility in solvents; type: physicochemical; conditions: sodium salt
[6] = test system: Escherichia coli ML-1410R EC-1; experiment: Antibacterial activity-improving action against β-lactam-resistant bacteria (Disc method); type: cell-based; conditions: ML1410REC1, 18 h
Method: (1) Antibacterial activity-improving action against β-lactam-resistantbacteria (Disc method):
(§1) In Penassay agar (Kyoei Pharm. Co., Ltd.) in which 200 mcg/ml of aminobenzyl penicillin (AB-PC) was inoculated germs of Escherichia coli ML-1410R EC-1 which β-lactamase-producing organisms, and 10 ml of the inoculated medium were poured on a Petri disch of 9 cm in diameter and solidified to give a test medium.
(§2) On this agar medium were placed pulp discs of 8 mm in diameter into which were respectively introduced […] of aqueous solutions of the substance KA-6643-D with a concentration of 10 mcg/ml followed by culturing at 37° C. for 18 hours and measuring the diameter of an inhibition zone around each disc. For purposes of control, the above experiment was repeated using the same type of medium in which no AB-PC was added.
The synergistic effect of the present substance and Ampicillin (aminobenzylpenicillin, AB-PC) on Escherichia coli which is resistant to Ampicillin was investigated by the disc method similarly to item (II) above with the results shown in Table 2.

[7] = test system: Proteus vulgaris OX17; experiment: Antibacterial spectrum, minimum inhibitory concentration; type: cell-based
[8] = test system: Enterobacter cloacae IID 977; experiment: as above; type: cell-based; conditions: IID977
[9] = test system: gram-positive and gram-negative bacteria; conditions: disclosed in Japanese Laid-open Patent Application Nos. 55-139380 and 56-43284; cited from earlier work
[10] = test system: β-lactamase; conditions: disclosed in Japanese Laid-open Patent Application Nos. 55-139380 and 56-43284; cited from earlier work
[11] = test system: dehydropeptidase; experiment: Decomposition with dehydropeptidase (stability); type: in vitro ADME; conditions: dehydropeptidase extracted from pig kidney and purified; KA-6643-A given as 1
[12] = test system: Proteus inconstants; experiment: Antibacterial spectrum, minimum inhibitory concentration; type: cell-based
[13] = test system: Ampicillin-resistant Escherichia coli; experiment: Synergistic effect with Ampicillin (AB-PC) on Ampicillin-resistant Escherichia coli (disc method); type: cell-based; conditions: for Diameter of inhibitory zone: AB-PC added; for Inhibitory zone: AB-PC 500 mcg/ml
Method: as §1, §2
The synergistic effect of the present substance and Ampicillin (AB-PC) on the Ampicillin-resistant Escherichia coli was investigated by the disc method similarly to the case of item (II) above, except that AB-PC was used in an amount of 500 mcg/ml.
The synergistic effect of the present substance and Ampicillin (AB-PC) on the Ampicillin-resistant Escherichia coli was investigated by the disc method similarly to the case of item (II) above.

Row | MIC [1] [µg/mL] | MIC [2] [µg/mL] | MIC [3] [µg/mL] | MIC [4] [µg/mL] | MIC [7] [µg/mL] | MIC [8] [µg/mL] | Solubility in water and methanol [5] | SMILES | antibacterial activity against both gram-positive and gram-negative bacteria [9] | β-lactamase inhibiting activity [10] | rate of decomposition with dehydropeptidase [11] | other results
1 |  |  |  |  |  |  |  | CC(=O)NC=C[S+]([O-])C1=C(C(=O)O)N2C(=O)C(C(C)(C)O)C2C1 (stereo not shown) [KA-6643-A] | excellent antibacterial activity | β-lactamase inhibiting activity | 1 | 
2 | 3.1 (≈ 9.5 µM) | 0.2 (≈ 0.613 µM) | 0.05 (≈ 0.153 µM) | 1.56 (≈ 4.78 µM) | 0.05 (≈ 0.153 µM) | 0.78 (≈ 2.39 µM) | Soluble | CC(=O)NCCSC1=C(C(=O)O)N2C(=O)C(=C(C)CO)C2C1 (stereo not shown) [KA-6643-X] |  |  |  | MIC [12]: 3.1 µg/mL (≈ 9.5 µM); zone of inhibition at 25 µg/mL ([13]; Escherichia coli, 18 h, present substance 25 mcg/ml, No AB-PC added, read-out: Diameter of inhibitory zone): 19 mm; zone of inhibition at 50 µg/mL ([13]; Escherichia coli, 18 h, present substance 50 mcg/ml, No AB-PC added, read-out: Diameter of inhibitory zone): 21 mm; Diameter of inhibitory zone ([13]; present substance 25 mcg/ml): 21.5 mm; Diameter of inhibitory zone ([13]; present substance 50 mcg/ml): 23.0 mm; Solubility in acetone, ethyl acetate, chloroform and ether ([5]; acetone, ethyl acetate, chloroform and ether): substantially insoluble
3 |  |  |  |  |  |  |  | CC(=O)NC=C[S+]([O-])C1=C(C(=O)O)N2C(=O)C(C(C)(C)OS(=O)(=O)O)C2C1 (stereo not shown) [KA-6643-B] | excellent antibacterial activity | β-lactamase inhibiting activity |  | 
4 | > 25 | > 25 | > 25 | 6.25 (≈ 19 µM) | > 25 | > 25 | Soluble | CC(=O)NCCSC1=C(C(=O)O)N2C(=O)[C@@H](C(C)(C)O)[C@H]2C1 [KA-6643-G] |  |  | 2.5×10^-3 | Inhibitory zone ([13]; present substance 250 mcg/ml): 20.5 mm; Inhibitory zone ([13]; present substance 500 mcg/ml): 22.5 mm; Inhibitory zone ([13]; present substance 1,000 mcg/ml): 24.5 mm; Solubility in acetone, ethyl acetate and chloroform ([5]; acetone, ethyl acetate and chloroform): substantially insoluble

Row | SMILES | MIC [1] [µg/mL] | MIC [2] [µg/mL] | MIC [3] [µg/mL] | MIC [4] [µg/mL] | MIC [7] [µg/mL] | MIC [8] [µg/mL] | Solubility in water and methanol [5] | antibacterial activity against both gram-positive and gram-negative bacteria [9] | β-lactamase inhibiting activity [10] | rate of decomposition with dehydropeptidase [11] | other results
5 | CC(=O)NCCSC1=C(C(=O)O)N2C(=O)[C@@H](C(C)(C)OS(=O)(=O)O)[C@H]2C1 [KA-6643-D] | 25 (≈ 61.2 µM) | 3.1 (≈ 7.59 µM) | 3.1 (≈ 7.59 µM) | 25 (≈ 61.2 µM) | 12.5 (≈ 30.6 µM) | 6.25 (≈ 15.3 µM) |  |  |  |  | Solubility in organic solvents ([5]; organic solvents such as acetone, chloroform, ethyl acetate and petroleum ether): substantially insoluble; Solubility in water ([5]; water): Readily soluble; zone of inhibition at 10 µg/mL ([6]; read-out: Diameter of inhibitory zone, present compound 10 mcg/ml, AB-PC 200 mcg/ml in medium, 37° C.): 22 mm; zone of inhibition at 10 µg/mL ([6]; read-out: Diameter of inhibitory zone, present compound 10 mcg/ml, no AB-PC, 37° C.): 0 mm
